Source: patent US20170114021A1, “HALOGEN-SUBSTITUTED COMPOUNDS” (priority 2014, published 2017)
Like-named read-outs stand apart in the source and are kept apart here.

Assays:
[1] = log P by HPLC on reversed-phase column (C18), EEC Directive 79/831 Annex V.A8; assay type: physicochemical
Description: ^a) Unless indicated otherwise, the following method was used to determine the log P values and masses: The determination of the given log P values was carried out in accordance with EEC Directive 79/831 Annex V.A8 by HPLC (High Performance Liquid Chromatography) on a reversed-phase column (C18). Agilent 1100 LC system; 50*4.6 Zorbax Eclipse Plus C18 1.8 micron; mobile phase A: acetonitrile (0.1% formic acid); mobile phase B: water (0.09% formic acid); linear gradient from 10% acetonitrile to 95% acetonitrile in 4.25 min, then 95% acetonitrile for a further 1.25 min; oven temperature 55° C.; flow rate: 2.0 ml/min. Mass detection is effected by means of an Agilend MSD system.

Phaedon cochleariae = Phaedon cochleariae spray test (PHAECO); assay type: in vivo; conditions: Chinese cabbage leaf discs, after 7 days
Description: Phaedon cochleariae—Spray Test (PHAECO) Solvent: 78.0 parts by weight of acetone • • 1.5 parts by weight of dimethylformamide Emulsifier: alkylaryl polyglycol ether
(§1) To produce a suitable preparation of active compound, 1 part by weight of active compound is dissolved using the specified parts by weight of solvent and made up with water containing an emulsifier concentration of 1000 ppm until the desired concentration is attained. To produce further test concentrations, the preparation is diluted with emulsifier-containing water.
After 7 days, efficacy in % is determined. 100% means that all the beetle larvae have been killed; 0% means that no beetle larvae have been killed.

Spodoptera frugiperda = Spodoptera frugiperda spray test (SPODFR); assay type: in vivo; conditions: application rate 100 g/ha; maize leaf discs; after 7 days
Description: Spodoptera frugiperda—Spray Test (SPODFR)
Solvent: 78.0 parts by weight of acetone • • 1.5 parts by weight of dimethylformamide Emulsifier: alkylaryl polyglycol ether
as §1
Leaf discs of maize (Zea mays) are sprayed with an active compound preparation of the desired concentration and, after drying, populated with caterpillars of the armyworm (Spodoptera frugiperda).
After 7 days, efficacy in % is determined. 100% means that all the caterpillars have been killed; 0% means that no caterpillars have been killed.

Tetranychus urticae = Tetranychus urticae spray test, OP-resistant (TETRUR); assay type: in vivo; conditions: application rate 100 g/ha; bean leaf discs; after 6 days
Description: Tetranychus urticae—Spray Test, OP-Resistant (TETRUR) Solvent: 78.0 parts by weight of acetone • • 1.5 parts by weight of dimethylformamide Emulsifier: alkylaryl polyglycol ether
as §1
Discs of bean leaves (Phaseolus vulgaris) infested by all stages of the greenhouse red spider mite (Tetranychus urticae) are sprayed with an active ingredient formulation of the desired concentration.
After 6 days, efficacy in % is determined. 100% means that all the spider mites have been killed; 0% means that no spider mites have been killed.

Lucilia cuprina = Lucilia cuprina test (LUCICU); assay type: in vivo; conditions: application rate 100 ppm; L1 larvae; after 2 days
Description: Lucilia cuprina-Test (LUCICU) Solvent: dimethyl sulphoxide
(§2) To produce a suitable preparation of active compound, 10 mg of active compound are mixed with 0.5 ml of dimethyl sulphoxide, and the concentrate is diluted with water to the desired concentration.
About 20 L1 larvae of the Australian sheep blowfly (Lucilia cuprina) are transferred into a test vessel containing minced horsemeat and the active compound preparation of the desired concentration.
After 2 days, the kill in % is determined. 100% means that all the larvae have been killed; 0% means that no larvae have been killed.

Boophilus microplus = Boophilus microplus injection test (BOOPMI Inj); assay type: in vivo; conditions: application rate 20 μg/animal; injection into abdomen
Description: Boophilus microplus—Injection Test (BOOPMI Inj) Solvent: dimethyl sulphoxide
To produce a suitable preparation of active compound, 10 mg of active compound are mixed with 0.5 ml of solvent and the concentrate is diluted with solvent to the desired concentration.
1 μl of the active compound solution is injected into the abdomen of 5 engorged adult female cattle ticks (Boophilus microplus). The animals are transferred into dishes and kept in a climate-controlled room.
The activity is assessed after the desired time by laying of fertile eggs. Eggs which are not visibly fertile are stored in a climate-controlled cabinet until the larvae hatch after about 42 days. An efficacy of 100% means that none of the ticks has laid any fertile eggs; 0% means that all the eggs are fertile.

Musca domestica = Musca domestica test (MUSCDO); assay type: in vivo; conditions: application rate 100 ppm; adult houseflies; after 2 days
Description: Musca domestica-Test (MUSCDO) Solvent: dimethyl sulphoxide
as §2
Vessels containing a sponge treated with sugar solution and the active compound preparation of the desired concentration are populated with 10 adult houseflies (Musca domestica).
After 2 days, the kill in % is determined. 100% means that all of the flies have been killed; 0% means that none of the flies have been killed.

Ctenocephalides felis = Ctenocephalides felis oral test (CTECFE); assay type: in vivo; conditions: application rate 100 ppm in citrated cattle blood; after 2 days
Description: Ctenocephalides felis—Oral Test (CTECFE) Solvent: dimethyl sulphoxide
To produce a suitable preparation of active compound, 10 mg of active compound are mixed with 0.5 ml of dimethyl sulphoxide. Dilution with citrated cattle blood gives the desired concentration.
About 20 unfed adult cat fleas (Ctenocephalides felis) are placed into a chamber which is closed at the top and bottom with gauze. A metal cylinder whose bottom end is closed with parafilm is placed onto the chamber. The cylinder contains the blood/active compound preparation, which can be imbibed by the fleas through the parafilm membrane.
After 2 days, the kill in % is determined. 100% means that all of the fleas have been killed; 0% means that none of the fleas have been killed.

[2] = reversed-phase C18 HPLC column, HPLC, C18, acetonitrile/water with formic acid gradient, read-out: log P

CC(=O)c1c(C(F)(F)F)c(C(F)(F)C(F)(F)F)nn1C [1-[1-methyl-3-(pentafluoroethyl)-4-(trifluoromethyl)-1H-pyrazol-5-yl]ethanone]
chromatographic logP [1, 2]: 3.61

Cn1cc(C(F)(F)F)c(C(F)(F)C(F)(F)F)n1 [1-methyl-3-(1,1,2,2,2-pentafluoroethyl)-4-(trifluoromethyl)pyrazole]
chromatographic logP [1]: 3.23

Cn1nc(C(F)(F)C(F)(F)F)c(C(F)(F)F)c1B1OC(C)(C)C(C)(C)O1 [1-methyl-3-(1,1,2,2,2-pentafluoroethyl)-5-(4,4,5,5-tetramethyl-1,3,2-dioxaborolan-2-yl)-4-(trifluoromethyl)pyrazole]
chromatographic logP [1, 2]: 5.05

O=C(NC1CC1)c1cc(I)ccc1Cl [2-chloro-N-cyclopropyl-5-iodobenzamide]
chromatographic logP [1, 2]: 2.13

Cn1nc(C(F)(F)C(F)(F)F)c(C(F)(F)F)c1-c1cc[nH]n1 [2′-methyl-5′-(pentafluoroethyl)-4′-(trifluoromethyl)-1H,2′H-3,3′-bipyrazole]
chromatographic logP [1, 2]: 3.03

Cn1nc(C(F)(F)C(F)(F)F)c(C(F)(F)F)c1-c1c[nH]nn1 [4-[1-methyl-3-(pentafluoroethyl)-4-(trifluoromethyl)-1H-pyrazol-5-yl]-1H-1,2,3-triazole]
chromatographic logP [1, 2]: 2.78

O=C(NC1CC1)c1cc(-n2cc(Br)cn2)ccc1Cl [5-(4-bromopyrazol-1-yl)-2-chloro-N-cyclopropylbenzamide]
chromatographic logP [1, 2]: 2.36

Cn1nc(C(F)(F)C(F)(F)F)c(C(F)(F)F)c1-c1nn[nH]n1 [5-[1-methyl-3-(pentafluoroethyl)-4-(trifluoromethyl)-1H-pyrazol-5-yl]-2H-tetrazole]
chromatographic logP [1, 2]: 2.11

[N-]=[N+]=Nc1ccc(Cl)c(C(=O)NC2CC2)c1 [5-azido-2-chloro-N-cyclopropylbenzamide]
chromatographic logP [1, 2]: 1.8

C#Cc1c(C(F)(F)F)c(C(F)(F)C(F)(F)F)nn1C [5-ethynyl-1-methyl-3-(pentafluoroethyl)-4-(trifluoromethyl)-1H-pyrazole]
chromatographic logP [1, 2]: 3.74

CN(C)/C=C/C(=O)c1c(C(F)(F)F)c(C(F)(F)C(F)(F)F)nn1C [(2E)-3-(dimethylamino)-1-[1-methyl-3-(pentafluoroethyl)-4-(trifluoromethyl)-1H-pyrazol-5-yl]prop-2-en-1-one]
chromatographic logP [1, 2]: 2.77

Cn1nc(C(F)(F)C(F)(F)F)c(C(F)(F)F)c1-c1ccn(-c2ccc(Cl)c(C(=O)NC3CC3)c2)n1 [Id-1, 2-chloro-N-cyclopropyl-5-[2′-methyl-5′-(pentafluoroethyl)-4′-(trifluoromethyl)-1H,2′H-3,3′-bipyrazol-1-yl]benzamide]
efficacy (Phaedon cochleariae; application rate 100 g/ha): 100% | efficacy (Spodoptera frugiperda): 100% | chromatographic logP [1, 2]: 4.05

Cn1nc(C(F)(F)C(F)(F)F)c(C(F)(F)F)c1-c1cnn(-c2ccc(Cl)c(C(=O)NC3CC3)c2)n1 [If-1, 2-chloro-N-cyclopropyl-5-{4-[1-methyl-3-(pentafluoroethyl)-4-(trifluoromethyl)-1H-pyrazol-5-yl]-2H-1,2,3-triazol-2-yl}benzamide]
efficacy (Tetranychus urticae): 100% | efficacy (kill) (Lucilia cuprina): 100% | efficacy (laying of fertile eggs) (Boophilus microplus): 100% | efficacy (Phaedon cochleariae; application rate 100 g/ha): 100% | efficacy (Spodoptera frugiperda): 100% | efficacy (kill) (Musca domestica): 100% | efficacy (kill) (Ctenocephalides felis): 100% | chromatographic logP [1, 2]: 4.17

Cn1nc(C(F)(F)C(F)(F)F)c(C(F)(F)F)c1-c1nnn(-c2ccc(Cl)c(C(=O)NC3CC3)c2)n1 [Ih-1, 2-chloro-N-cyclopropyl-5-{5-[1-methyl-3-(pentafluoroethyl)-4-(trifluoromethyl)-1H-pyrazol-5-yl]-2H-tetrazol-2-yl}benzamide]
efficacy (Tetranychus urticae): 90% | efficacy (Phaedon cochleariae; application rate 20 g/ha): 100% | efficacy (Spodoptera frugiperda): 100% | chromatographic logP [1, 2]: 4.06

CON(C)C(=O)c1c(C(F)(F)F)c(C(F)(F)C(F)(F)F)nn1C [N-methoxy-N,1-dimethyl-3-(pentafluoroethyl)-4-(trifluoromethyl)-1H-pyrazole-5-carboxamide]
chromatographic logP [1, 2]: 3.22

O=C(NC1CC1)c1cc(B(O)O)ccc1Cl [[4-chloro-3-(cyclopropylcarbamoyl)phenyl]boronic acid]
chromatographic logP [1, 2]: 0.96
